Values of other authors, collected in patent US11865207B2, “Topical pharmaceutical composition for treatment of anal fissures and hemorrhoids” (Ferring B.V., priority 2018, dated 2024).

System: anal fissures
Conditions: 2% topical diltiazem in an ointment

## COc1ccc([C@@H]2Sc3ccccc3N(CCN(C)C)C(=O)[C@@H]2OC(C)=O)cc1 [diltiazem]
  healing rate: 75%
